# Assay results as given in patent EP4483954A1 (Masarykova Univerzita, priority 2023, dated 2025).
# Target: T1, Haspin (h) (Homo sapiens, UniProt Q8TF76)
# T1 construct: purchased Eurofins (KinaseProfiler)
# T1 sequence (Q8TF76 1-798): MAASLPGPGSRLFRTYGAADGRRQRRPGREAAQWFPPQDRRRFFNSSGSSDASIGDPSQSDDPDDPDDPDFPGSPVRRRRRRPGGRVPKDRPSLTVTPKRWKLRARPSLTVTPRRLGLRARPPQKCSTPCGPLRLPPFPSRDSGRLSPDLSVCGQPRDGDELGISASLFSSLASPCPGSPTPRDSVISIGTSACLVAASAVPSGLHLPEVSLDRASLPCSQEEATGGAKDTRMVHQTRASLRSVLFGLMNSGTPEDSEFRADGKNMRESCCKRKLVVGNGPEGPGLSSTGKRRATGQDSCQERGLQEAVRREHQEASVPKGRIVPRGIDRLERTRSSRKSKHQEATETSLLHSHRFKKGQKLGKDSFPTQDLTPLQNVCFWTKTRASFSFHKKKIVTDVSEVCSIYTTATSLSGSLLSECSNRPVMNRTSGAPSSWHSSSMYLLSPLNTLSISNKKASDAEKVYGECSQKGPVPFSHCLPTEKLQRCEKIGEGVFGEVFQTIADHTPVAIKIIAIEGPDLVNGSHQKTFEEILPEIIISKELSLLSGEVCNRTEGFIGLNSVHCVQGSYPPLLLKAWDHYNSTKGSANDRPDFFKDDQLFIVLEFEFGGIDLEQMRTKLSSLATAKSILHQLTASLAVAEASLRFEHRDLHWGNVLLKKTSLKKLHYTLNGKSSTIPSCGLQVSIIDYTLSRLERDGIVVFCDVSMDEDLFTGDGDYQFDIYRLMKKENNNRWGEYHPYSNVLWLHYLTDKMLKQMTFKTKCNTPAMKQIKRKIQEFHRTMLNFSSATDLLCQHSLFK
# Experiment: radiometric kinase assay (KinaseProfiler, Eurofins), Haspin
# Format: biochemical
# Details: in vitro radiometric kinase assay, tested at 1 nM to 10 000 nM, no pre-incubation; read-out: inhibitory activities (IC50 values) Haspin
# Method: The compounds were profiled in the radiometric assays (KinaseProfiler, Eurofins).
# Briefly, kinases were diluted in the buffer shown below prior to addition to the reaction mix: • CDKL3, TAF1L: 20 mM Tris/HCl pH 8.5, 0.2 mM EDTA, 0.1% β-mercaptoethanol, 0.01% Brij-35, 5% glycerol, 1 mg/ml BSA; • Haspin: 15 mM MOPS, 0.75 mM EDTA, 0.0075% Brij-35, 3.75% Glycerol, 150 mM NaCl, 0.1% β-mercaptoethanol, 1 mg/mLBSA; • CDKL4, CLK2, PIM1, TRB2: […], 1 mM EDTA, 0.01% Brij-35, 5% Glycerol, 0.1% β-mercaptoethanol, 1 mg/mL BSA.
# All compounds were prepared to 50x final assay concentration in 100% DMSO. This working stock of the compound was added to the assay well as the first component in the reaction, followed by the remaining components as detailed in the general assay protocols below. There was no pre-incubation step between the compound and the kinase prior to initiation of the reaction.
# Haspin (h) was incubated with 8 mM MOPS pH 7.0, 0.2 mM EDTA, 500 µM RARTLSFAEPG (SEQ ID NO. 3), 10 mM magnesium acetate and γ-^33P-ATP (specific activity and concentration as required). The reaction was initiated by the addition of the Mg/ATP mix. After incubation for 40 minutes at room temperature, the reaction was stopped by the addition of phosphoric acid to a concentration of 0.5%. An aliquot of the reaction was then spotted onto a filter and washed four times for 4 minutes in 0.425% phosphoric acid and once in methanol prior to drying and scintillation counting.
# Kinase activity data were expressed as the percent remaining kinase activity in tested samples compared to the vehicle (DMSO) reactions. The compounds were tested at the following concentrations: 1 nM, 3 nM, 10 nM, 30 nM, 100 nM, 300 nM, 1000 nM, 3000 nM, and 10 000 nM; IC50 values and curve fits were then obtained.
row,IC50 [nM],Structure (SMILES)
1,100 to 499,"c1nc2ccc(-c3csc4ccc(Nc5cn[nH]c5)nc34)cn2n1 [Preparative Example 134, 3-([1,2,4]triazolo[1,5-a]pyridin-6-yl)-N-(1H-pyrazol-4-yl)thieno[3,2-b]pyridin-5-amine]"
2,3000 to 10000,"CC(C)(C)OC(=O)n1cc(Nc2ccc3scc(-c4ccc5ncnn5c4)c3n2)cn1 [Preparative Example 133, tert-butyl 4-((3-([1,2,4]triazolo[1,5-a]pyridin-6-yl)thieno[3,2-b]pyridin-5-yl)amino)-1H-pyrazole-1-carboxylate]"
3,3000 to 10000,"Cn1ccc(CNc2ccc3scc(-c4ccncc4)c3n2)n1 [Preparative Example 108, N-((1-methyl-1H-pyrazol-3-yl)methyl)-3-(pyridin-4-yl)thieno[3,2-b]pyridin-5-amine]"
4,3000 to 10000,"CCOC(=O)c1cn(C)nc1Nc1ccc2scc(-c3ccncc3)c2n1 [Preparative Example 107, Ethyl 1-methyl-3-((3-(pyridin-4-yl)thieno[3,2-b]pyridin-5-yl)amino)-1H-pyrazole-4-carboxylate]"
5,100 to 499,"c1cc(-c2csc3ccc(OCC4CNCCO4)nc23)ccn1 (stereo not shown) [Preparative Example 118, 2-(((3-(pyridin-4-yl)thieno[3,2-b]pyridin-5-yl)oxy)methyl)-morpholine]"
6,500 to 3000,"c1cc(-c2csc3ccc(-c4ccns4)nc23)ccn1 [Preparative Example 92, 5-(isothiazol-5-yl)-3-(pyridin-4-yl)thieno[3,2-b]pyridine]"
7,500 to 3000,"c1ccc(-n2ccc(-c3ccc4scc(-c5ccncc5)c4n3)n2)cc1 [Preparative Example 88, 5-(1-phenyl-1H-pyrazol-3-yl)-3-(pyridin-4-yl)thieno[3,2-b]pyridine]"
8,100 to 499,"Cn1cc(-c2ccc3scc(-c4cnc5ccnn5c4)c3n2)cn1 [Preparative Example 55, 5-(1-methyl-1H-pyrazol-4-yl)-3-(pyrazolo[1,5-a]-pyrimidin-6-yl)thieno[3,2-b]pyridine]"
9,100 to 499,"c1cnnc(Nc2ccc3scc(-c4ccncc4)c3n2)c1 [Preparative Example 113, N-(pyridazin-3-yl)-3-(pyridin-4-yl)thieno[3,2-b]pyridin-5-amine]"
10,100 to 499,"Cn1cc(-c2ccc3scc(-c4ccc5n[nH]cc5c4)c3n2)cn1 [Preparative Example 51, 3-(2H-indazol-5-yl)-5-(1-methyl-1H-pyrazol-4-yl)thieno[3,2-b]-pyridine]"
11,100 to 499,"c1cncc(-c2ccc3scc(-c4ccc5ncnn5c4)c3n2)c1 [Preparative Example 131, 3-([1,2,4]triazolo[1,5-a]pyridin-6-yl)-5-(pyridin-3-yl)thieno[3,2-b]pyridine]"
12,100 to 499,"Cc1cc(Nc2ccc3scc(-c4ccncc4)c3n2)nn1C [Preparative Example 102, N-(1,5-dimethyl-1H-pyrazol-3-yl)-3-(pyridin-4-yl)thieno[3,2-b]pyridin-5-amine]"
13,500 to 3000,"Cc1sc2ccc(-c3ccn(C)n3)nc2c1-c1ccncc1 [Preparative Example 143, 2-methyl-5-(1-methyl-1H-pyrazol-3-yl)-3-(pyridin-4-yl)thieno[3,2-b]pyridine]"
14,20 to 99,"c1cc(-c2ccc3scc(-c4ccc5ncnn5c4)c3n2)ccn1 [Preparative Example 132, 3-([1,2,4]triazolo[1,5-a]pyridin-6-yl)-5-(pyridin-4-yl)thieno[3,2-b]pyridine]"
15,100 to 499,"Cn1cc(-c2ccc3scc(-c4ccnc(NC(=O)OC(C)(C)C)c4)c3n2)cn1 [Preparative Example 24, tert-butyl (4-(5-(1-methyl-1H-pyrazol-4-yl)thieno[3,2-b]pyridin-3-yl)pyridin-2-yl)carbamate]"
16,3000 to 10000,"Cc1ccc(S(=O)(=O)n2ccc3c(-c4csc5ccc(-c6cnn(C)c6)nc45)ccnc32)cc1 [Preparative Example 44, 5-(1-methyl-1H-pyrazol-4-yl)-3-(1-tosyl-1H-pyrrolo[2,3-b]pyridin-4-yl)thieno[3,2-b]pyridine]"
17,500 to 3000,"Cn1ccc(Nc2ccc3scc(-c4ccc5nncn5c4)c3n2)n1 [Preparative Example 135, 3-([1,2,4]triazolo[4,3-a]pyridin-6-yl)-N-(1-methyl-1H-pyrazol-3-yl)thieno[3,2-b]pyridin-5-amine]"
18,3000 to 10000,"Cn1ncnc1-c1ccc2scc(-c3ccncc3)c2n1 [Preparative Example 96, 5-(1-methyl-1H-1,2,4-triazol-5-yl)-3-(pyridin-4-yl)thieno[3,2-b]pyridine]"
19,100 to 499,"Cn1cc(Nc2ccc3scc(-c4ccncc4)c3n2)cn1 [Preparative Example 97, N-(1-methyl-1H-pyrazol-4-yl)-3-(pyridin-4-yl)thieno[3,2-b]pyridin-5-amine]"
20,100 to 499,"CSc1cn(C)nc1Nc1ccc2scc(-c3ccncc3)c2n1 [Preparative Example 106, N-(1-methyl-4-(methylthio)-1H-pyrazol-3-yl)-3-(pyridin-4-yl)thieno[3,2-b]pyridin-5-amine]"
21,100 to 499,"Cn1cc(-c2ccc3scc(-c4ccc5nncn5c4)c3n2)cn1 [Preparative Example 59, 3-([1,2,4]-triazolo[4,3-a]pyridin-6-yl)-5-(1-methyl-1H-pyrazol-4-yl)thieno[3,2-b]pyridine]"
22,500 to 3000,"c1cnc2c(-c3ccc4scc(-c5ccncc5)c4n3)cnn2c1 [Preparative Example 115, 5-(pyrazolo[1,5-a]pyrimidin-3-yl)-3-(pyridin-4-yl)thieno[3,2-b]pyridine]"
23,100 to 499,"Cn1cc(-c2ccc3scc(-c4ccnc(O)c4)c3n2)cn1 [Preparative Example 18, 4-(5-(1-methyl-1H-pyrazol-4-yl)thieno[3,2-b]-pyridin-3-yl)pyridin-2-ol]"
24,3000 to 10000,"CC(C)(C)n1ccc(-c2ccc3scc(-c4ccncc4)c3n2)n1 [Preparative Example 80, 5-(1-(tert-butyl)-1H-pyrazol-3-yl)-3-(pyridin-4-yl)thieno[3,2-b]pyridine]"

row,Structure (SMILES),IC50 [nM]
1,"CCOC(=O)c1cn(C)nc1Nc1ccc2scc(-c3ccnc(NC(=O)OC(C)(C)C)c3)c2n1 [Preparative Example 126, Ethyl 3-((3-(2-((tert-butoxycarbonyl)amino)pyridin-4-yl)thieno[3,2-b]pyridin-5-yl)amino)-1-methyl-1H-pyrazole-4-carboxylate]",3000 to 10000
